Experimental data taken from ChEMBL document CHEMBL1201862, “PubChem BioAssay data set” (2004).
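Cultured in 96-well plates, cells were exposed to test compound for 48 hours across five concentrations. At the GI50, growth is halved.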 The source made the active and inactive calls. Cut-off read from the data, not from the text of the source: active = GI50 up to about 1.1 µM and inactive = higher.

What was measured:
Assay in all cases: NCI anticancer screen, dose series, 48 h
CAKI-1 = system: CAKI-1
HCT-116 = system: HCT-116
HCT-15 = system: HCT-15
HOP-62 = system: HOP-62
HOP-92 = system: HOP-92
HT-29 = system: HT-29
MDA-MB-231 = system: MDA-MB-231
MOLT-4 = system: MOLT-4
NCI-H460 = system: NCI-H460
OVCAR-3 = system: OVCAR-3
OVCAR-4 = system: OVCAR-4
OVCAR-5 = system: OVCAR-5
OVCAR-8 = system: OVCAR-8
PC-3 = system: PC-3
RPMI-8226 = system: RPMI-8226
RXF 393 = system: RXF 393
SF-268 = system: SF-268
SK-MEL-2 = system: SK-MEL-2
SR = system: SR
UO-31 = system: UO-31

Structure (SMILES) | GI50 (CAKI-1) | GI50 (HCT-116) | GI50 (HCT-15) [µM] | GI50 (HOP-62) | GI50 (HOP-92) | GI50 (HT-29) | GI50 (MDA-MB-231) | GI50 (MOLT-4) | GI50 (NCI-H460) | GI50 (OVCAR-3) | GI50 (OVCAR-4) | GI50 (OVCAR-5) | GI50 (OVCAR-8) | GI50 (PC-3) | GI50 (RPMI-8226) | GI50 (RXF 393) | GI50 (SF-268) | GI50 (SK-MEL-2) | GI50 (SR) | GI50 (UO-31)
CCN(CC)C(=S)N/N=C(/C)c1cccc(/C(C)=N\NC(=S)N(CC)CC)n1 | 1.29 µM (inactive) | 2.8 µM (inactive) | 2.3 | 1.41 µM (inactive) | 1.46 µM (inactive) | 3.52 µM (inactive) | 1.76 µM (inactive) | 1.66 µM (inactive) | 1.53 µM (inactive) | 1.35 µM (inactive) | 1.25 µM (inactive) | 3.31 µM (inactive) | 1.44 µM (inactive) | 3.15 µM (inactive) | 2.08 µM (inactive) | 2.3 µM (inactive) | 0.334 µM (active) | 4.68 µM (inactive) | 0.32 µM (active) | 1.95 µM (inactive)
N#Cc1nc(C#N)c(N)[nH]1 | > 100 µM (inactive) | > 100 µM (inactive) | > 100 | > 100 µM (inactive) | > 100 µM (inactive) | > 100 µM (inactive) | > 100 µM (inactive) | > 100 µM (inactive) | > 100 µM (inactive) | > 100 µM (inactive) | > 100 µM (inactive) | > 100 µM (inactive) | > 100 µM (inactive) | > 100 µM (inactive) | > 100 µM (inactive) | > 100 µM (inactive) | > 100 µM (inactive) | > 100 µM (inactive) | > 100 µM (inactive) | > 100 µM (inactive)
CC(C)(C)OC(=O)c1ccc(NCC2=CC(=O)C=CC2=O)cc1 | 1.48 µM (inactive) | 13.2 µM (inactive) | 7.18 | 25.9 µM (inactive) | 1.93 µM (inactive) | 17.3 µM (inactive) | 8.34 µM (inactive) | 1.97 µM (inactive) | 23.6 µM (inactive) | 4.15 µM (inactive) | 8.85 µM (inactive) | 17.8 µM (inactive) | 13 µM (inactive) | 12 µM (inactive) | 2.48 µM (inactive) | 11.4 µM (inactive) | 11.5 µM (inactive) | 16.7 µM (inactive) | 2.47 µM (inactive) | 7.11 µM (inactive)
O=C(NN1CCCCC1)c1cc2cc(CCl)ccc2oc1=O | 18.1 µM (inactive) | 18.2 µM (inactive) | 17.7 | 19.4 µM (inactive) | 10.4 µM (inactive) | 14.9 µM (inactive) | 20.6 µM (inactive) | 22.2 µM (inactive) | 14.9 µM (inactive) | 20.4 µM (inactive) | 18.4 µM (inactive) | 17.2 µM (inactive) | 22.1 µM (inactive) | 14.8 µM (inactive) | 24 µM (inactive) | 18.5 µM (inactive) | 16.4 µM (inactive) | 11.9 µM (inactive) | 21.2 µM (inactive) | 18.5 µM (inactive)
O=[N+]([O-])c1cc2oc(COc3ccccc3)nc2cc1Cl | 22.7 µM (inactive) | 19 µM (inactive) | 18.7 | 20.4 µM (inactive) | 22.5 µM (inactive) | 32.5 µM (inactive) | 30.5 µM (inactive) | 22.2 µM (inactive) | 21.3 µM (inactive) | 17.9 µM (inactive) | 34.9 µM (inactive) | 28.4 µM (inactive) | 35.2 µM (inactive) | 38.4 µM (inactive) | 23.7 µM (inactive) | 22.1 µM (inactive) | 47.4 µM (inactive) | 22.1 µM (inactive) | 29.4 µM (inactive) | 27.2 µM (inactive)
CNc1ccc2c(c1)Cc1ccccc1-2 | 30.6 µM (inactive) | 56.2 µM (inactive) | 15.3 | 57.4 µM (inactive) | 21 µM (inactive) | 30.3 µM (inactive) | 55.8 µM (inactive) | 17 µM (inactive) | 32.5 µM (inactive) | 26.8 µM (inactive) | 26.5 µM (inactive) | 98.6 µM (inactive) | 25.4 µM (inactive) | 32.7 µM (inactive) | 38.8 µM (inactive) | 34.8 µM (inactive) | 44 µM (inactive) | 35.4 µM (inactive) | 27 µM (inactive) | 31.1 µM (inactive)
CN(C)CCn1c(=O)c2ccc(NCCNCCO)c3c(=O)c4cc(O)ccc4n(c1=O)c23 | 0.938 µM (active) | 0.664 µM (active) | 5.31 | 0.483 µM (active) | 0.61 µM (active) | 0.665 µM (active) | 0.586 µM (active) | 0.229 µM (active) | 0.655 µM (active) | 2.55 µM (inactive) | 0.895 µM (active) | 1.79 µM (inactive) | 1.12 µM (inactive) | 1.69 µM (inactive) | 1.18 µM (inactive) | 0.586 µM (active) | 0.393 µM (active) | 1.9 µM (inactive) | < 0.0352 µM (active) | 3.05 µM (inactive)
